Reference: ChEMBL document CHEMBL3875215, “Neuritogenic activity of bi-functional bis-tryptoline triazole” (Bioorg Med Chem, 2017)
The source made the active and inactive calls. The calls are words filed in the database; no cut-off is given here.

What was measured:
[1] = Cytotoxicity against mouse P19 derived neurons assessed as cell viability at 10 nM after 18 hrs by XTT assay relative to control; type: toxicity; details: read-out: Activity
[2] = Cytotoxicity against mouse P19 derived neurons assessed as cell viability at 100 nM after 18 hrs by XTT assay relative to control; type: toxicity; details: read-out: Activity
[3] = biological target: T1, Amyloid-beta precursor protein (Homo sapiens, UniProt P05067); test: Inhibition of human amyloid beta (1 to 42) aggregation at 100 uM incubated for 48 hrs under dark condition by ThT fluorescence assay relative to control
T1 sequence (P05067 whole entry): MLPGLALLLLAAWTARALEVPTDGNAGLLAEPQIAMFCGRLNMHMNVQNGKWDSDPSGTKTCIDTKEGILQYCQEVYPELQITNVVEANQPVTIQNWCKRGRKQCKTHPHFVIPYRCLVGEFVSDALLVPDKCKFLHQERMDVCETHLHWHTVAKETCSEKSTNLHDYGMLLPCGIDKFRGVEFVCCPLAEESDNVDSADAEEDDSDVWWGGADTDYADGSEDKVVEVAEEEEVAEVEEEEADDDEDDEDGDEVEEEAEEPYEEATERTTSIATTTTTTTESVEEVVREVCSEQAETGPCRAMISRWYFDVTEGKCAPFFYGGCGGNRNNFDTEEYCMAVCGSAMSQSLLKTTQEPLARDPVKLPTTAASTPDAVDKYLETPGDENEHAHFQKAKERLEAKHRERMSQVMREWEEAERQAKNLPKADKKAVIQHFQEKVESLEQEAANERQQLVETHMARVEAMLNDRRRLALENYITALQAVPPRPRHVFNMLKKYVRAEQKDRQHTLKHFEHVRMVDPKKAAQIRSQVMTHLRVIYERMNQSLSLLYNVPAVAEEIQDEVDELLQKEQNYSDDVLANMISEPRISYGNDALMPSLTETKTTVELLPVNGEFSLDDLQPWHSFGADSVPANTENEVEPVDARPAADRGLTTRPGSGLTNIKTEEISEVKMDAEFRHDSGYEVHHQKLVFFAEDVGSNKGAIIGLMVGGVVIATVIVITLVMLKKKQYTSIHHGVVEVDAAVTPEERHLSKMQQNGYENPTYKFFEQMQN

[4] = Antioxidant activity assessed as inhibition of DPPH radical at 100 uM incubated for 30 mins under dark condition relative to control; type: functional
[5] = Cytotoxicity against mouse P19 derived neurons assessed as cell viability at 1 nM after 18 hrs by XTT assay relative to control; type: toxicity; details: read-out: Activity
[6] = Cytotoxicity against mouse P19 derived neurons assessed as cell viability at 1000 nM after 18 hrs by XTT assay relative to control; type: toxicity; details: read-out: Activity
[7] = Cytotoxicity against mouse P19 derived neurons assessed as cell viability at 10000 nM after 18 hrs by XTT assay relative to control; type: toxicity; details: read-out: Activity
P19 [8] = test: Neuritogenic activity in mouse P19 derived neurons assessed as increase in neurite number at 1 nM after 18 hrs by phase contrast microscopic method relative to control; type: functional
P19 [9] = test: Neuritogenic activity in mouse P19 derived neurons assessed as increase in neurite length at 1 nM after 18 hrs by phase contrast microscopic method relative to control; type: functional
Beta-secretase 1 [10] = biological target: T2, Beta-secretase 1 (Homo sapiens, UniProt P56817); test: Inhibition of BACE1 (unknown origin) at 25 uM using beta-secretase substrate 4 after 30 mins by fluorescence spectrophotometric method relative to control
T2 sequence (P56817 whole entry): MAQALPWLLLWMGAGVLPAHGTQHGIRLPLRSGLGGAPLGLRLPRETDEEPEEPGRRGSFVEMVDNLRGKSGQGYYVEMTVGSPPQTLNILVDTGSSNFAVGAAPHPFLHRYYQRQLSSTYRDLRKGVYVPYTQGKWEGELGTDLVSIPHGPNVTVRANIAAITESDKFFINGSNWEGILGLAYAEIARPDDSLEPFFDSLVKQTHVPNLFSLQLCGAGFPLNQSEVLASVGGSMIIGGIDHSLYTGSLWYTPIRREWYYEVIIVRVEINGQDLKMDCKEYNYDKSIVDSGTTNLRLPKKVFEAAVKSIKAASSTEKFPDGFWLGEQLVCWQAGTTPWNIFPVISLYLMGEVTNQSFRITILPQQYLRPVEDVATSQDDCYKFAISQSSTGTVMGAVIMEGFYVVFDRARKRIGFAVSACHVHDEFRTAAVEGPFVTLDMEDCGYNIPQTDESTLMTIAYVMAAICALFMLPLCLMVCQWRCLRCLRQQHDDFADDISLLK

SH-SY5Y = test: Neuroprotective activity against aggregated amyloid beta-induced toxicity in human SH-SY5Y cells assessed as increase in cell viability at 1 to 10 uM preincubated for 2 hrs followed by aggregated amyloid beta addition measured after 24 hrs by MTT assay; type: functional, cell-based
[11] = biological target: T1, Amyloid-beta precursor protein; test: Inhibition of human amyloid beta (1 to 42) aggregation incubated for 48 hrs under dark condition by ThT fluorescence assay
Beta-secretase 1 [12] = biological target: T2, Beta-secretase 1; test: Inhibition of BACE1 (unknown origin) using beta-secretase substrate 4 after 30 mins by fluorescence spectrophotometric method
[13] = biological target: T1, Amyloid-beta precursor protein; test: Inhibition of amyloid beta (1 to 42) aggregation (unknown origin)

Row | SMILES | viability at 18 h, 0.01 µM [1] [%] | viability at 18 h, 0.1 µM [2] [%] | inhibition [3] [%] | inhibition [4] [%] | viability at 18 h, 0.001 µM [5] [%] | viability at 18 h, 1 µM [6] [%] | viability at 18 h, 10 µM [7] [%] | Activity (P19 [8]) [%] | Activity (P19 [9]) [%] | inhibition (Beta-secretase 1 [10]) [%] | Activity (SH-SY5Y) | IC50 [11] [µM] | IC50 (Beta-secretase 1 [12]) [µM] | IC50 [13] [µM]
1 | N[C@@H](Cc1c[nH]c2ccccc12)Cn1cc(-c2ccc(Cl)c(Cl)c2)nn1 | 128 | 116 | 67.6 | 0 | 139 | 108 | 93.8 | 118.7 | 84.13 | 61.5 | – | – | – | –
2 | OC[C@@H]1Cc2c([nH]c3ccccc23)CN1Cc1cn(C[C@@H]2Cc3c([nH]c4ccccc34)CN2)nn1 | 131 | 129 | 80.2 | 8.46 | 131 | 131 | 124 | 136.09 | 93.25 | 67.5 | Active | 66.4 | 16.7 | –
3 | O=c1c(O)c(-c2ccc(O)c(O)c2)oc2cc(O)cc(O)c12 [QUERCETIN] | – | – | – | – | – | – | – | 40.43 | 58.37 | – | – | – | – | 7.94
4 | O=C(/C=C/c1ccc(O)c(O)c1)NCc1cn(C[C@@H]2Cc3c([nH]c4ccccc34)CN2)nn1 | 139 | 125 | 84.1 | 92.3 | 130 | 120 | 140 | 123.04 | 57.54 | 21.7 | – | – | > 50 | –
5 | COC1=C2C[C@@H](C)C[C@H](OC)[C@H](O)[C@@H](C)/C=C(\C)[C@H](OC(N)=O)[C@@H](OC)/C=C\C=C(/C)C(=O)NC(=CC1=O)C2=O [GELDANAMYCIN] | – | – | – | – | – | – | – | 55.22 | 59.14 | – | – | – | – | –
6 | N[C@@H](Cc1c[nH]c2ccccc12)Cn1cc(CNC(=O)/C=C/c2ccc(O)c(O)c2)nn1 | 130 | 135 | 81.5 | 50.6 | 133 | 129 | 140 | 131.74 | 62.21 | 40 | – | – | – | –
